The text below walks through data of article PMC11206519, “Multi-Endpoint Toxicological Assessment of Chrysin Loaded Oil-in-Water Emulsion System in Different Biological Models” (Nanomaterials, 2024).

Where “and” joins values, the source holds several entries; their conditions need not be identical. Equal entries are not always repeated.

In series [1] the test system is S. typhimurium TA100. Nature of the series: Ames test, anti-mutagenicity. As to conditions: standard mutagen alone, 0.05 µg/plate, +S9. The procedure:
(§1) Furthermore, the anti-mutagenicity of the samples was performed by a similar procedure, as mentioned above. […] The percentage inhibition (decrease revertant colony number) was calculated as in the following equation:Anti-mutagenicity (%) = [1 − (b/a)] × 100 • a = revertant colony number induced via standard mutagen (positive control). • b = revertant colony number induced by standard mutagen in the presence of each sample treatment.
(§2) The percent of inhibition between 0–20%, 21–40%, 41–60%, and higher than 60% indicate negligible, weak, moderate, and strong anti-mutagenicity, respectively.
(The Ames test uses bacterial strains that need an amino acid and regain growth without it when mutated back.)

Series [2] deals with D. melanogaster trans-heterozygous mwh+/+flr3 larvae of the HB cross. Nature of the series: SMART wing spot test, anti-mutagenicity, HB cross. As for the experimental part: (§3) The somatic mutation and recombination test, or the wing spot test, using D. melanogaster was employed as an in vivo system to assess the mutagenicity and anti-mutagenicity of chrysin-ES. Two different crosses were conducted: (i) a standard cross (ST) and (ii) a high bioactivation cross (HB). The standard cross larvae were obtained from virgin female of flr3/TM3, Ser crossed with males of mwh/mwh, while the HB cross larvae expressing cytochrome P450 enzymes involved in xenobiotic biotransformation were obtained from virgin females of ORR/ORR; flr^3/In (3LR) TM3, ri p^psep l (3)89Aa bx^34e e Bd^s crossed with males of mwh/mwh. The flies were cultured at a constant temperature of 25 ± 1 °C and 60–70% RH at photoperiod 12:12 (light/dark). To evaluate the mutagenicity of chrysin and chrysin-ES, a hundred larva F1 progenies derived from the above crossing were fed with instant Drosophila medium (Formula 4-24®), Carolina, Burlington, NC, USA) containing chrysin or chrysin-ES (20–120 µg/mL). DI was used as a negative control, while 20 mM urethane (URE) was used as a positive control. The larvae were reared on each medium until pupation at 25 °C. After that, forty wings of surviving flies in each group were collected for mutant analysis. The mutant spots on the wings, including small single spots, large single spots, and twin spots, were counted. The statistical significance was calculated as previously described by Frei and Würgler.
(§4) Furthermore, the anti-mutagenicity of the samples was performed by a similar procedure as mentioned above.

Series [3] has as its system D. melanogaster trans-heterozygous mwh+/+flr3 larvae of the ST cross. As to the kind of experiment: SMART wing spot test, anti-mutagenicity, ST cross. As for the experimental part:
as §3, §4

The test system of series [4] is S. typhimurium TA 100. Nature of the series: Ames test, mutagenicity. The class given is cell-based, Salmonella Typhimurium. As to conditions: positive control. The procedure: (§5) The S. typhimurium strains TA 98 and TA 100 were used to detect frameshift and base-pair mutations, respectively. […] Then, they were poured onto minimal glucose agar containing a trace amount of histidine, following incubation at 37 °C for 48 h. Then, the revertant colonies were counted and compared with the negative control. If the number of revertant colonies in the tested sample treatment is at least twice that of the negative control (spontaneous revertant colonies), it is considered a mutagen.

Series [5] relates to S. typhimurium TA 98. Nature of the series: Ames test, mutagenicity. The format is cell-based, Salmonella Typhimurium. As to conditions: +S9; 0.5 µg/plate, positive control. As for the experimental part:
as §5

Series [6] concerns S. typhimurium TA98. As to the kind of experiment: Ames test, anti-mutagenicity. As to conditions: standard mutagen alone, 0.1 µg/plate, +S9. As for the experimental part: as §1, §2
The subject of series [7] is D. melanogaster trans-heterozygous mwh+/+flr3 larvae of the HB cross. Nature of the series: SMART wing spot test, mutagenicity, HB cross. The format is in vivo, Drosophila melanogaster. As to conditions: 20 mM, positive control.
Experimental: (§6) The somatic mutation and recombination test, or the wing spot test, using D. melanogaster was employed as an in vivo system to assess the mutagenicity and anti-mutagenicity of chrysin-ES. Two different crosses were conducted: (i) a standard cross (ST) and (ii) a high bioactivation cross (HB) [18]. The standard cross larvae were obtained from virgin female of flr3/TM3, Ser crossed with males of mwh/mwh, while the HB cross larvae expressing cytochrome P450 enzymes involved in xenobiotic biotransformation were obtained from virgin females of ORR/ORR; flr^3/In (3LR) TM3, ri p^psep l (3)89Aa bx^34e e Bd^s crossed with males of mwh/mwh. The flies were cultured at a constant temperature of 25 ± 1 °C and 60–70% RH at photoperiod 12:12 (light/dark). To evaluate the mutagenicity of chrysin and chrysin-ES, a hundred larva F1 progenies derived from the above crossing were fed with instant Drosophila medium (Formula 4-24®), Carolina, Burlington, NC, USA) containing chrysin or chrysin-ES (20–120 µg/mL). DI was used as a negative control, while 20 mM urethane (URE) was used as a positive control. The larvae were reared on each medium until pupation at 25 °C. After that, forty wings of surviving flies in each group were collected for mutant analysis. The mutant spots on the wings, including small single spots, large single spots, and twin spots, were counted.
The test system of series [8] is D. melanogaster trans-heterozygous mwh+/+flr3 larvae of the ST cross. As to the kind of experiment: SMART wing spot test, mutagenicity, ST cross. The class given is in vivo, Drosophila melanogaster. As to conditions: 20 mM, positive control.
Experimental: as §6
Setting [9] is: Nitrite alone (sodium nitrite 36 mM).
Setting [10] is: NMU alone (sodium nitrite 36 mM: methylurea 10 mM).

Consider `Cn1c(N)nc2c3cccnc3ccc21` [IQ, 2-Amino-3-methylimidazo(4,5-f) quinoline, reference compound], for which the “Number of Revertant Colonies” value in series [1] was determined as 730 ± 39.
As to `CCOS(C)(=O)=O` [EMS, ethyl methanesulfonate, reference compound], in series [2] (EMS 5 mM alone), the “Mutant spots per individual (number of spots), Large Single” value is listed as 0.40 (16); the “Mutant spots per individual (number of spots), Small Single” value was 10.00 (400); the “Mutant spots per individual (number of spots), Total” value is 10.40 (416); the “Mutant spots per individual (number of spots), Twin” value (“Mutant spots per individual … Twin” for short) is 0 (0). Further, in series [2] (EMS 5 mM alone, vs DI), the “Statistical diagnosis, Large Single” value was “+” and the “Statistical diagnosis, Small Single” value is on record as “+”. Besides, in series [3] (EMS 5 mM alone), the “Mutant spots per individual (number of spots), Large Single” value is on record as 1.75 (70); the “Mutant spots per individual (number of spots), Small Single” value is given as 5.60 (224); the “Mutant spots per individual (number of spots), Total” value was 7.80 (312); the “Mutant spots per individual … Twin” value was 0.45 (18). In series [3] (EMS 5 mM alone, vs DI), the “Statistical diagnosis, Large Single” value was “+”; the “Statistical diagnosis, Small Single” value is given as “+”; the “Statistical diagnosis, Total” value is listed as “+”; the “Statistical diagnosis, Twin” value is “+”.
Regarding `O=N[O-].[Na+]` [Nitrite, sodium nitrite, reference compound], in series [2] (setting [9]), the “Mutant spots per individual (number of spots), Large Single” value is reported as 0.03 (1); the “Mutant spots per individual (number of spots), Small Single” value was 0.25 (10); the “Mutant spots per individual (number of spots), Total” value is reported as 0.28 (11); the “Mutant spots per individual … Twin” value was 0 (0). Also, the “Statistical diagnosis, Small Single” value in series [2] (Nitrite alone, vs DI) was “−”. Moreover, in series [3] (setting [9]), the “Mutant spots per individual (number of spots), Large Single” value is 0 (0); the “Mutant spots per individual (number of spots), Small Single” value is given as 0.05 (2); the “Mutant spots per individual (number of spots), Total” value is 0.08 (3); the “Mutant spots per individual … Twin” value is recorded as 0.03 (1). Further, in series [3] (Nitrite alone, vs DI), the “Statistical diagnosis, Small Single” value is listed as “−” and the “Statistical diagnosis, Total” value is on record as “−”.
On to `CN(N=O)C(N)=O` [NMU, N-nitrosomethylurea, reference compound], for which, in series [2] (setting [10]), the “Mutant spots per individual (number of spots), Large Single” value is 0.40 (16); the “Mutant spots per individual (number of spots), Small Single” value is 1.43 (57); the “Mutant spots per individual (number of spots), Total” value is recorded as 1.93 (77); the “Mutant spots per individual … Twin” value is listed as 0.10 (4). In addition, in series [2] (NMU alone, vs DI), the “Statistical diagnosis, Large Single” value is given as “+”; the “Statistical diagnosis, Small Single” value is listed as “−”; the “Statistical diagnosis, Total” value was “+”. For the same molecule, in series [3] (setting [10]), the “Mutant spots per individual (number of spots), Large Single” value is recorded as 0.10 (4); the “Mutant spots per individual (number of spots), Small Single” value was 1.70 (68); the “Mutant spots per individual (number of spots), Total” value is listed as 2.00 (80); the “Mutant spots per individual … Twin” value is 0.20 (8). Further, in series [3] (NMU alone, vs DI), the “Statistical diagnosis, Small Single” value is listed as “+”; the “Statistical diagnosis, Total” value is listed as “+”; the “Statistical diagnosis, Twin” value is “+”.
In the case of `NC(=O)C(=Cc1ccc([N+](=O)[O-])o1)c1ccco1` [AF-2, 2-(2-Furyl)-3-(5-nitro-2-furyl) acrylamide, reference compound], in series [4] (−S9, 0.1 µg/plate), the “Number of Revertant Colonies” value is 439 ± 30.
As to `Nc1ccc2cc3ccccc3cc2c1` [2-AA, 2-Aminoanthracene, reference compound], the “Number of Revertant Colonies” value in series [4] (+S9, 0.5 µg/plate) is given as 487 ± 29; in series [5] it was 459 ± 44.
Consider `CNC(N)=O` [Methylurea, methylurea, reference compound], for which the “Statistical diagnosis, Small Single” value in series [2] (in vivo) is listed as “−”. In series [3] (in vivo), the “Statistical diagnosis, Small Single” value is given as “−” and the “Statistical diagnosis, Total” value is given as “−”.
`Cn1c(N)nc2ncc(-c3ccccc3)cc21` [PhIP, 2-amino-1-methyl-6-phenylimidazo (4,5-b) pyridine, reference compound]: the “Number of Revertant Colonies” value in series [6] is 400 ± 11.
For `CCOC(N)=O` [URE, urethane, reference compound], in series [7], the “Mutant spots per individual (number of spots), Large Single” value was 3.10 (62); the “Mutant spots per individual (number of spots), Small Single” value is given as 10.10 (202); the “Mutant spots per individual (number of spots), Total Spots” value was 14.50 and 14.50 (290); the “Mutant spots per individual … Twin” value is given as 1.30 (26). Besides, in series [7] (vs DI), the “Statistical diagnosis, Large Single” value is reported as “+”; the “Statistical diagnosis, Small Single” value is “+”; the “Statistical diagnosis, Total Spots” value is given as “+”; the “Statistical diagnosis, Twin” value is reported as “+”. Besides, in series [8], the “Mutant spots per individual (number of spots), Large Single” value is on record as 0.08 (3); the “Mutant spots per individual (number of spots), Small Single” value is recorded as 3.73 (149); the “Mutant spots per individual (number of spots), Total Spots” value was 3.80 and 3.80 (152); the “Mutant spots per individual … Twin” value is given as 0 (0). In addition, in series [8] (vs DI), the “Statistical diagnosis, Large Single” value is listed as “+”; the “Statistical diagnosis, Small Single” value is reported as “+”; the “Statistical diagnosis, Total Spots” value is listed as “+”.
